Measurements from patent publication US6586006B2, “Solid delivery systems for controlled release of molecules incorporated therein and methods of making same” (Elan Drug Delivery Limited, priority 1994, dated 2003).
“Also recorded” adds a separate entry of the source.

Tests used:
[1] = Encapsulation of organic substances in α-D-glucose pentaacetate glass; format: physicochemical
Description: Excellent recoveries were obtained in the encapsulation of several organic substances in the glasses. Glass discs of α-D-Glucose pentaacetate containing 2% w/w of the materials listed in Table 4 were formed by melting and quenching and then ground. Photochrome II is 5-chloro-1,3-dihydro-1,3,3-trimethyl spiro[2H-indole-2,3′-[3H]-napth[2,1-b] [1,4]-oxazine. The encapsulated materials were extracted by the suitable solvent such as methanol or water.
Pesticide-like Oxadiazon was dissolved easily in the melt of this glass at about 15% w/w without problem.

[2] = Glass transition temperature (Tg) by thermal analysis (DSC); format: physicochemical
Excerpt: In general, the tendency to crystallize, from a cooling melt or with reducing solvent, is low. Both devitrification and the fluidity of the melt at temperatures close to Tg, can be controlled by modifiers such as other derivative sugars and certain organic actives. The following two tables, generated as described in the Examples presented below, provide Tg and melting temperature data for a variety of HDCs suitable for use, either alone, or in a composite glass, herein.
Dissolution of synthetic corticosteroid XPDO (described below) into a TOAC melt and quenching to form the vitreous solid dose delivery system was achieved. By looking at the release of MB9 into aqueous solution, these experiments tested the compatibility of the steroid within the glass, subsequent recovery of the steroid and studied the effect that XPDO has on the properties of the delivery system formed looking at the release of MB9 into aqueous solution. TOAC (3.21 g) was pre-melted at 150° C., before being quenched to glass. The glass was finely ground with XPDO (0.15 g) before being remelted. The clear melt was again quenched to yield the composite HDC/active glass. Thermal analysis was carried out on a Rheometric Scientific Differential Scanning Calorimeter (DSC) at a heating rate of 10°/min under a nitrogen atmosphere. The following samples were prepared:
Studies were performed using the synthetic corticosteroid XPDO dissolved in DCM. The solution was spray dried in a Buchi B-191 spray drier, using an inlet temperature of 40° C. […] XPDO was incorporated at 20 wt %. The powder was completely amorphous as confirmed by thermal analysis (Tg=46° C.).

[3] = Resistance of glasses to devitrification on exposure to relative humidity; format: physicochemical
Description: Glasses were made by evaporating DCM on a hotplate set at 65° C. from a 25% solutions of TOAC (50% solutions often deposited crystals in the pipette tip). Drying was carried out for 2 hr to be certain of complete dryness. Uniform glasses were produced by using an Eppendorf-type pipette to deliver 100 μl to a slide recently placed on the hotplate and then removing about 50 μl by using the clear/expel volume of the pipette.
XPDO was therefore incorporated into a TOAC glass by dissolving both crystalline TOAC and XPDO in DCM and evaporating the solvent at 70° C. on a hotplate. XPDO was used in proportions of 10% and 20% of total solids in the final TOAC glass.
(§1) The resulting glasses were tested for their utility as controlled release matrices in two ways. First, they were assessed for their ability to resist devitrification on exposure to high RH at RT. Second, they were immersed in water or phosphate-buffered saline (PBS) to study their solubility and rate of erosion by surface recrystallization.

[4] = Controlled release of encapsulated MB9 dye from HDC glass beads/discs; format: physicochemical
Description: In the following experiments, the delivery system was preformulated, whether as a single material, or as a mixed composition. This was carried out by intimately grinding the component HDCs together, followed by careful, controlled melting in a furnace, between 120-140° C. and with normal atmosphere to form melts. The melts were quenched to glass by pouring over a brass block. This glass was then finely ground.
MB9 dye (1 or 5 wt %) was mixed with the ground glass prior to re-melting at 140° C. The melt was quenched to form small glass beads (2.5 mm diameter) which were used in controlled release experiments.
Controlled release of encapsulated dye was monitored by suspending three such beads in 25 or 50 ml of deionized water or PBS solution at ambient temperatures (27-30° C.) or at 37° C., as indicated. The media were undisturbed, except for periodic stirring and were replaced at set intervals with fresh media (generally at 72 hr intervals). Both single HDC glasses and composite HDC glasses were formed. […] The use of other HDCs as glass modifiers in the composite HDC formulations enable the tailoring of the glasses formed to yield the release characteristics desired.
In FIG. 8, the results were obtained from TOAC glass discs (6 mm×2.5 mm) with MB9 dye evenly dispersed therein at 2 wt %. Release was controlled at 25° C. with gentle stirring and media changes at regular intervals. Note the linear release of MB9 dye over a 55 day period. The results presented in FIG. 8 indicate that a pure HDC vitreous delivery vehicle system gives zero-order release rates of guest substances. The results presented in FIGS. 9-14 show variation on release rates by changing the ratios of different HDCs in the delivery systems, changing the carbohydrate backbone length and by changing the nature of the derivative on the carbohydrate backbone. In each instance it is clear that the HDC delivery systems allow a wide range of release rates that can be tailored to the guest substance and the delivery thereof.

[5] = system: African Green monkey kidney-derived cell line Vero; assay: In vitro toxicity of TOAC in Vero cell culture; format: cell-based; details: saturated solution in 10-fold serial dilution or powder added to medium; week of culture
Description: A saturated solution of TOAC in deionised distilled water (0.42 g in 20 mls) was tested for toxicity in vitro using the African Green monkey kidney-derived cell line Vero, in either a 10-fold serial dilution or by adding the TOAC powder directly to the tissue culture medium.

[6] = Devitrification / recrystallization of glasses immersed in liquid water; format: physicochemical
Description: However, when immersed in liquid water, the surface of the glass slowly recrystallized so that microscopic pyramidal crystals of TOAC could be seen under an inverted microscope within 15-30 min of addition of water. Crystallization was slowly progressive and within another few minutes small clusters of the typical needle shaped crystals of XPDO appeared. Since neither the needle shaped XPDO crystals nor the pyramidal TOAC crystals were adherent to the underlying glass, they were washed away readily to reveal a fresh glass surface for further slow dissolution. The complete exclusion of XPDO from the TOAC crystals ensured that this molecule, previously incorporated in the glassy TOAC matrix, was now released into the liquid phase.
as §1
The 10% α-GPAC and 10% TOPR in TOAC glasses and the 50:50 molar ratio TOAC:α-GPAC glass were also immersed in water to examine their rate of devitrification in liquid water rather than humid air.

[7] = Stability, recovery and release of XPDO from HDC glass (HPLC); format: physicochemical
Description: Release characteristics of the vitreous HDC solid dose delivery systems were studied by monitoring the release of MB9 from TOAC/XPDO glasses as shown in FIG. 15. For analysis of stability of active in the vitreous HDC solid dose delivery systems, XPDO was recovered from the samples by dissolving the glass in acetonitrile and analyzing by HPLC. There was full recovery of the guest substance even after storage at 45° C. for 4 weeks.
For analysis XPDO was extracted from the spray-dried powder by dissolving the powder in acetonitrile and then diluting the acetonitrile with sodium phosphate buffer prior to analysis by HPLC. Samples were set up to test stability of XPDO in the spray dried formulations at 45° C. and stored over saturated Zinc sulphate (RH 80-85%).
For release into sodium phosphate buffer, 0.0868 g of the spray dried powder was shaken in 10 mls of the buffer for 1 minute. The suspension was then filtered through a 0.2 μm filter. […] Bioavailability of the steroid from the delivery system was tested by immersion in an aqueous solution for a short time. Stability of the steroid in the spray-dried formulation was tested at high humidity and 45° C. (both factors are important if the application as an inhalable powder is to be successful). The results indicated a resistance to high humidity, stability in the glass and ready bioavailability in vitro tests.

## CC(C)Oc1cc(-n2nc(C(C)(C)C)oc2=O)c(Cl)cc1Cl [Oxadiazon]
[1]
  amount dissolved in the melt of the glass: about 15 % w/w

## CC(=O)OC[C@H](OC(C)=O)[C@@H](OC(C)=O)[C@H](OC(C)=O)[C@@H](COC(C)=O)OC(C)=O [SHAC, sorbitol hexaacetate]
[2]; single HDC glasses (Table 1)
  Tg/° C.: −6 °C
other
  melting point: 100 to 104 °C

## CC(=O)OCC1OC(OC2OC(COC(C)=O)C(OC(C)=O)C(OC(C)=O)C2OC(C)=O)C(OC(C)=O)C(OC(C)=O)C1OC(C)=O (stereo not drawn) [TOAC, trehalose octaacetate]
[2]; glass quenched from melt, DSC, heating rate 10°/min, nitrogen
  Tg: Tg = 50.1 °C
[2]; single HDC glasses (Table 1)
  Tg/° C.: 50 °C
[2]; single and composite HDC glasses, mole ratios of HDCs in glass (Table 2)
  Tg/° C.: 50 °C
[3]; TOAC glass from DCM on slides, room temperature, 50-60% relative humidity
  recrystallization of glass on storage: gradually recrystallized over 1 month
[3]; mixed HDC glasses (Table 6)
  Initial Form: Glass
[3]; mixed HDC glasses exposed to high RH (75% to 95%) at RT, 24 hr
  After RH 24 hr: Cryst + + + +
[3]; thin glass films and quenched disks, RT, overnight exposure
  devitrification at RH from 75% to 95%: very susceptible to devitrification at high RH; also recorded: crystallized at all RHs from 75% to 95%
[4]; TOAC glass discs 6 mm×2.5 mm, MB9 2 wt %, PBS, 25° C., FIG. 8
  period of linear release of MB9 dye: 55 days
[4]; TOAC glass, MB9 dye
  MB9 release characteristics: zero-order release characteristics
[5]
  cell division: normal
  toxic effects: No toxic effects were observed

## CCCC1OC2CC3C4CC(F)C5=CC(=O)CCC5(C)C4(F)C(O)CC3(C)C2(C(=O)CO)O1 (stereo not drawn) [XPDO, 6α,9α-difluoro-11β,21-dihydroxy-16α,17α-propyl methylene dioxy-4-pregnene-3,20-dione]
[2]; spray dried amorphous powder, XPDO incorporated at 20 wt %
  Tg: 46 °C
[3]; 10% (w/v) guest in HDC (TOAC) glass, RH up to 95%, room temperature
  HDC glass stability at high relative humidity: stable when exposed to relative humidities of up to 95% at room temperature for over a month
[3]; guest in TOAC glass from DCM, stored at RH of 75%, 81%, 90% and 95% for 4 weeks
  change in glass structure such as recrystallization: no change in glass structure
[6]; 10% (w/v) guest in HDC glass
  time to release of guest substance when added to liquid water: 5 to 10 min
[6]; glass immersed in liquid water
  time to surface recrystallization after immersion in water: 15 to 30 min
[7]; spray dried glass powder, 4 weeks storage at 45° C. and 85% RH
  degradation on HPLC analysis: No evidence of any degradation
[7]; spray dried powder shaken in buffer for 1 minute, filtered, HPLC
  release into sodium phosphate buffer: effectively being released into aqueous solution
